{"source": "patent US20170050957A1", "about": "“4-AMINO-6-(HETEROCYCLIC)PICOLINATES AND 6-AMINO-2-(HETEROCYCLIC)PYRIMIDINE-4-CARBOXYLATES AND THEIR USE AS HERBICIDES” (Dow AgroSciences LLC, priority 2013, published 2017)", "key": {"[1]": {"system": "Key Broadleaf Weed and Crop Species", "assay": "Post-emergent Test II herbicidal activity (Table 15)", "format": "in vivo", "conditions": "post-emergence, 336 h, 14 d; for pest or weed control at 35 g/ha: 35 g ai/ha; for pest or weed control at 70 g/ha: 70 g ai/ha; for pest or weed control at 140 g/ha: 140 g ai/ha", "procedure,_shortened": "(§1)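 Visual injury rating (0 = none, 100% = complete kill) made 14 d after treatment, relative to untreated plants. Compounds in an acetone/DMSO/aqueous crop-oil/surfactant spray, at top rate and serial 1/2×-1/16× rates, were applied at 187 L/ha overhead to first-second true leaf plants raised 7-21 d in greenhouse.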"}, "[2]": {"system": "Key Grass and Sedge Weeds as well as Grass Crops", "assay": "Post-emergent Test II herbicidal activity (Table 16)", "format": "in vivo", "conditions": "post-emergence, 336 h, 14 days after application; for pest or weed control at 35 g/ha: 35 g ai/ha; for pest or weed control at 70 g/ha: 70 g ai/ha; for pest or weed control at 140 g/ha: 140 g ai/ha", "procedure,_shortened": "as §1"}, "[3]": {"conditions": "Abutilon theophrasti, velvetleaf (Abutilon theophrasti), read-out: Visual Growth Reduction (%) 14 Days After Application, ABUTH"}, "[4]": {"conditions": "Brassica napus, oilseed rape, canola (Brassica napus), read-out: Visual Growth Reduction (%) 14 Days After Application, BRSNN"}, "[5]": {"conditions": "Chenopodium album, lambsquarters (Chenopodium album), read-out: Visual Growth Reduction (%) 14 Days After Application, CHEAL"}, "[6]": {"conditions": "Euphorbia heterophylla, wild poinsettia (Euphorbia heterophylla), read-out: Visual Growth Reduction (%) 14 Days After Application, EPHHL"}, "[7]": {"conditions": "Helianthus annuus, sunflower (Helianthus annuus), read-out: Visual Growth Reduction (%) 14 Days After Application, HELAN"}, "[8]": {"conditions": "Cyperus esculentus, yellow nutsedge (Cyperus esculentus), read-out: Visual Growth Reduction (%) 14 Days After Application CYPES"}, "[9]": {"conditions": "Echinochloa crus-galli, barnyardgrass (Echinochloa crus-galli), read-out: Visual Growth Reduction (%) 14 Days After Application ECHCG"}, "[10]": {"conditions": "Oryza sativa, rice (Oryza sativa), read-out: Visual Growth Reduction (%) 14 Days After Application ORYSA"}, "[11]": {"conditions": "Setaria faberi, giant foxtail (Setaria faberi), read-out: Visual Growth Reduction (%) 14 Days After Application SETFA"}, "[12]": {"conditions": "Triticum aestivum, wheat, spring (Triticum aestivum), read-out: Visual Growth Reduction (%) 14 Days After Application TRZAS"}, "[13]": {"conditions": "Zea mays, maize, corn (Zea mays), read-out: Visual Growth Reduction (%) 14 Days After Application ZEAMX"}}, "note": "Where two headings read alike, the source gives them in different places.", "data": [{"smiles": "Nc1c(Cl)c(C(=O)O)nc(-c2ccc3ccsc3c2)c1Cl", "note": "[Compound 3.11]", "values": [{"measurement": "melting point", "value": "239 °C (dec.)"}, {"measurement": "pest or weed control at 35 g/ha", "setting": "[1]; [3]", "value": "0 to 29", "unit": "%"}, {"measurement": "pest or weed control at 70 g/ha", "setting": "[1]; [3]", "value": "0 to 29", "unit": "%"}, {"measurement": "pest or weed control at 140 g/ha", "setting": "[1]; [3]", "value": "0 to 29", "unit": "%"}, {"measurement": "pest or weed control at 35 g/ha", "setting": "[1]; [4]", "value": "0 to 29", "unit": "%"}, {"measurement": "pest or weed control at 70 g/ha", "setting": "[1]; [4]", "value": "0 to 29", "unit": "%"}, {"measurement": "pest or weed control at 140 g/ha", "setting": "[1]; [4]", "value": "0 to 29", "unit": "%"}, {"measurement": "pest or weed control at 35 g/ha", "setting": "[1]; [5]", "value": "85 to 94", "unit": "%"}, {"measurement": "pest or weed control at 70 g/ha", "setting": "[1]; [5]", "value": "85 to 94", "unit": "%"}, {"measurement": "pest or weed control at 140 g/ha", "setting": "[1]; [5]", "value": "85 to 94", "unit": "%"}, {"measurement": "pest or weed control at 35 g/ha", "setting": "[1]; [6]", "value": "0 to 29", "unit": "%"}, {"measurement": "pest or weed control at 70 g/ha", "setting": "[1]; [6]", "value": "0 to 29", "unit": "%"}, {"measurement": "pest or weed control at 140 g/ha", "setting": "[1]; [6]", "value": "0 to 29", "unit": "%"}, {"measurement": "pest or weed control at 35 g/ha", "setting": "[1]; [7]", "value": "85 to 94", "unit": "%"}, {"measurement": "pest or weed control at 70 g/ha", "setting": "[1]; [7]", "value": "85 to 94", "unit": "%"}, {"measurement": "pest or weed control at 140 g/ha", "setting": "[1]; [7]", "value": "85 to 94", "unit": "%"}, {"measurement": "pest or weed control at 35 g/ha", "setting": "[2]; [8]", "value": "0 to 29", "unit": "%"}, {"measurement": "pest or weed control at 70 g/ha", "setting": "[2]; [8]", "value": "0 to 29", "unit": "%"}, {"measurement": "pest or weed control at 140 g/ha", "setting": "[2]; [8]", "value": "0 to 29", "unit": "%"}, {"measurement": "pest or weed control at 35 g/ha", "setting": "[2]; [9]", "value": "0 to 29", "unit": "%"}, {"measurement": "pest or weed control at 70 g/ha", "setting": "[2]; [9]", "value": "0 to 29", "unit": "%"}, {"measurement": "pest or weed control at 140 g/ha", "setting": "[2]; [9]", "value": "0 to 29", "unit": "%"}, {"measurement": "pest or weed control at 35 g/ha", "setting": "[2]; [10]", "value": "0 to 29", "unit": "%"}, {"measurement": "pest or weed control at 70 g/ha", "setting": "[2]; [10]", "value": "0 to 29", "unit": "%"}, {"measurement": "pest or weed control at 140 g/ha", "setting": "[2]; [10]", "value": "0 to 29", "unit": "%"}, {"measurement": "pest or weed control at 35 g/ha", "setting": "[2]; [11]", "value": "0 to 29", "unit": "%"}, {"measurement": "pest or weed control at 70 g/ha", "setting": "[2]; [11]", "value": "0 to 29", "unit": "%"}, {"measurement": "pest or weed control at 140 g/ha", "setting": "[2]; [11]", "value": "0 to 29", "unit": "%"}, {"measurement": "pest or weed control at 35 g/ha", "setting": "[2]; [12]", "value": "0 to 29", "unit": "%"}, {"measurement": "pest or weed control at 70 g/ha", "setting": "[2]; [12]", "value": "0 to 29", "unit": "%"}, {"measurement": "pest or weed control at 140 g/ha", "setting": "[2]; [12]", "value": "0 to 29", "unit": "%"}, {"measurement": "pest or weed control at 35 g/ha", "setting": "[2]; [13]", "value": "0 to 29", "unit": "%"}, {"measurement": "pest or weed control at 70 g/ha", "setting": "[2]; [13]", "value": "0 to 29", "unit": "%"}, {"measurement": "pest or weed control at 140 g/ha", "setting": "[2]; [13]", "value": "0 to 29", "unit": "%"}]}]}
